Where a SMILES comes first, the peptide text is derived from it. [ ]: non-standard residue; d: D form. The star is where a group is joined. pY = N[C@@H](Cc1ccc(OP(=O)(O)O)cc1)C(=O)O; NHPhenethyl = c1ccc(CCN*)cc1; NHBn = c1ccc(CN*)cc1; NHPh = c1ccc(N*)cc1
Target: Tyrosine-protein kinase Lck (Homo sapiens, UniProt P06239)
Sequence (P06239 whole entry): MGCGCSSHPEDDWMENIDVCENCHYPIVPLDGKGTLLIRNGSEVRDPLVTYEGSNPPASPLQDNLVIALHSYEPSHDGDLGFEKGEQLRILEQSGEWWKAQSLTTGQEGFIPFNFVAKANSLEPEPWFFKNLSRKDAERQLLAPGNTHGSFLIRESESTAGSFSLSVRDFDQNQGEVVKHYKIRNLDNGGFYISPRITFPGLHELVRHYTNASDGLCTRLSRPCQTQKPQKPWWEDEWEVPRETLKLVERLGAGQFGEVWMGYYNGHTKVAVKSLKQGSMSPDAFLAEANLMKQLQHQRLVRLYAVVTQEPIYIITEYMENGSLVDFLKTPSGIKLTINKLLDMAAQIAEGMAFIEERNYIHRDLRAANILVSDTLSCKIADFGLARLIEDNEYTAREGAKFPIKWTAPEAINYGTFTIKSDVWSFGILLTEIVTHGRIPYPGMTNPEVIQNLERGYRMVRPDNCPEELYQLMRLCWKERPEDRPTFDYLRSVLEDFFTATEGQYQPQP
Description: Binding affinity against p56 Lck tyrosine kinase SH2 domain was measured using glutathione S-transferase (GST) fusion protein

Row | SMILES | Kd [µM]
1 | CC(=O)N[C@@H](Cc1ccc(OP(=O)(O)O)cc1)C(=O)N[C@@H](CC(C)C)C(=O)NCc1cccnc1 | 34
2 | CC(=O)N[C@@H](Cc1ccc(OP(=O)(O)O)cc1)C(=O)N[C@@H](CC(C)C)C(=O)NCc1ccncc1 | 16
3 | CC(=O)N[C@@H](Cc1ccc(OP(=O)(O)O)cc1)C(=O)N[C@@H](CC(C)C)C(=O)NCc1ccc(C(C)(C)C)cc1 | 8
4 | CC(=O)N[C@@H](Cc1ccc(OP(=O)(O)O)cc1)C(=O)N[C@@H](CC(C)C)C(=O)N[C@@H](C)c1ccc(C)cc1 | 1.5
5 | CC(=O)N[C@@H](Cc1ccc(OP(=O)(O)O)cc1)C(=O)N[C@@H](CC(C)C)C(=O)NCc1ccccn1 | 31
6 | COc1ccc(CNC(=O)[C@H](CC(C)C)NC(=O)[C@H](Cc2ccc(OP(=O)(O)O)cc2)NC(C)=O)cc1OC | 12
7 | COc1ccc(CNC(=O)[C@H](CC(C)C)NC(=O)[C@H](Cc2ccc(OP(=O)(O)O)cc2)NC(C)=O)cc1 | 1.5
8 | CC(=O)N[C@@H](Cc1ccc(OP(=O)(O)O)cc1)C(=O)N[C@@H](CC(C)C)C(=O)NCc1ccc(C)cc1 | 2.5
9 | CC(=O)N[C@@H](Cc1ccc(OP(=O)(O)O)cc1)C(=O)N[C@@H](CC(C)C)C(=O)N[C@H](C)c1ccc(C)cc1 | 27
10 | CC(=O)N[C@@H](Cc1ccc(OP(=O)(O)O)cc1)C(=O)N[C@@H](CC(C)C)C(=O)N(C)Cc1ccc(C)cc1 | 2
11 | CC(=O)N[C@@H](Cc1ccc(OP(=O)(O)O)cc1)C(=O)N[C@@H](CC(C)C)C(=O)NCc1ccc(C(C)C)cc1 | 0.8
12 | CC(=O)N[C@@H](Cc1ccc(OP(=O)(O)O)cc1)C(=O)N[C@@H](CC(C)C)C(=O)N[C@@H](C)c1ccc(C(C)C)cc1 | 0.2
13 | CC(=O)N[C@@H](Cc1ccc(OP(=O)(O)O)cc1)C(=O)N[C@@H](CC(C)C)C(=O)NCc1ccc(N(C)C)cc1 | 20
14 | COc1ccccc1CNC(=O)[C@H](CC(C)C)NC(=O)[C@H](Cc1ccc(OP(=O)(O)O)cc1)NC(C)=O | 17
15 | COc1ccc(CNC(=O)[C@H](CCC(=O)O)NC(=O)[C@H](Cc2ccc(OP(=O)(O)O)cc2)NC(C)=O)cc1 | 0.2
16 | COc1cccc(CNC(=O)[C@H](CC(C)C)NC(=O)[C@H](Cc2ccc(OP(=O)(O)O)cc2)NC(C)=O)c1 | 9
17 | CC(=O)N[C@@H](Cc1ccc(OP(=O)(O)O)cc1)C(=O)N[C@@H](CCC(=O)O)C(=O)Nc1ccccc1 (Ac-[pY]-Glu-NHPh) | 8
18 | CC(=O)N[C@@H](Cc1ccc(OP(=O)(O)O)cc1)C(=O)N[C@@H](CCC(=O)O)C(=O)NCCc1ccccc1 (Ac-[pY]-Glu-NHPhenethyl) | 4
19 | CC(=O)N[C@@H](Cc1ccc(OP(=O)(O)O)cc1)C(=O)N[C@@H](CC(C)C)C(=O)NCc1ccccc1 (Ac-[pY]-Leu-NHBn) | 16
